Source: paper PMC12284618 (Chemistry (Weinheim an Der Bergstrasse, Germany), 2025)
Where a name gives a salt, the structure may show the parent alone. Read-outs that look alike come from different tables or passages of the source.

Assays:
CI‐M6P/IGF2R:D1–D15 = molecular target: T1, CI‐M6P/IGF2R:D1–D15 (Homo sapiens, UniProt P11717); assay: Competitive fluorescence polarization assay (displacement of fluorescent glycopeptide 1); format: binding; conditions: for Potency (relative binding potency): (IC50 of compound 2 / IC50 of compound) × 100
T1 construct: domains 1–15 (residues AA 41–2304); gp67 signal peptide (X1) (N, cleaved yes); 6‐His‐tag (C); PreScission protease cutting site (C); TwinStrep‐tag (C); made in house; host or cells: Spodoptera frugiperda Sf9 insect cells (baculovirus, pFastBac-1), secreted into the medium
Procedure: The recombinant bacmid DNA was purified using alkaline extraction and transfected using ExpiFectamine‐Sf (Thermo Fisher Scientific) into Spodoptera frugiperda 9 (Sf9) cells. The first generation of recombinant baculovirus was harvested after 5 days post‐transfection and amplified in subsequent shaking cultures of Sf9 in SF‐900 II serum‐free media (Thermo Fisher Scientific) at 27 °C and 130 rpm at a density of 2 × 10^6 cells/ml. Media containing viral particles were harvested after four days, and the amplification step was repeated to obtain high‐titer P2 stock, which was then used in large‐scale expression. […] The column was washed with a buffer containing 100 mM Tris‐HCl and 150 mM NaCl (pH 8.0), and the recombinant protein was eluted using the same buffer supplemented with 50 mM biotin. Expression of the recombinant protein was assessed by SDS‐PAGE and Western Blot analysis. Folding was checked by a competitive binding assay with radioactively labeled IGF2 (a natural ligand of IGF2R).^[ [25] ^]
(§1) We employed a fluorescence polarization (FP) binding assay to assess the binding affinity of the tested compounds for a soluble CI‐M6P/IGF2R ectodomain construct. This method monitors the rotational speed of a fluorescent probe—specifically, a fluorescein‐labeled glycopeptide 1. Upon binding to the CI‐M6P/IGF2R protein, the probe's rotation slows, resulting in increased fluorescence polarization. This shift is quantified as anisotropy (or polarization), which reflects the ratio of bound to free probe, enabling binding affinity estimation without phase separation.^[ [26] ^]
In all experiments, the compounds were dissolved in water and serially diluted with water in Echo Qualified 384‐Well PP Source Microplates using a BRAVO pipetting station (Agilent, USA). The compounds were then pre‐spotted onto black 384‐well low‐volume round‐bottom plates (Corning, USA) using an Echo 650 liquid handler (Beckman Coulter, USA) to obtain the desired final compound concentrations. Subsequently, 5 µL of the prepared mixture (soluble receptor and glycopeptide 1 in 100 mM Tris/HCl, 150 mM NaCl, pH 8.0) was added using either a MANTIS Liquid Dispenser (Formulatrix, Dubai, United Arab Emirates) or a Clicktip pipette (Thermo Fischer Scientific, USA). The plate was sealed with Duck Tape (Hampton Research USA) to prevent evaporation, shaken for 10 s at 800 rpm, centrifuged to remove bubbles, and then incubated at room temperature.
Next, competitive FP experiments were performed using a procedure analogous to previously reported methods.^[ [27] ^] […] Subsequently, 5 µL of a mixture containing CI‐M6P/IGF2R:D1–D15 (final concentration: 300 nM) and fluorescent glycopeptide 1 (final concentration: 10 nM) was added using a MANTIS Liquid Dispenser. The anisotropy data from the plate reader were plotted against the compound concentration using GraphPad Prism 8.0. A nonlinear regression analysis, “log [Inhibitor] versus response – Variable slope (four parameters),” was used to calculate the IC₅₀ values (the concentration at which half‐maximal inhibition is achieved) for each competition experiment. Relative binding affinities were calculated as (IC₅₀ of compound 2 / IC₅₀ of each compound) × 100 (%).

CI‐M6P/IGF2R = molecular target: CI‐M6P/IGF2R; parameters: method as in PMID 3003148; conditions: monomeric M6P; cited from earlier work
[1] = molecular target: T2, soluble CI‐M6P/IGF2R:D1–D15 (Homo sapiens, UniProt P11717); assay: Reverse saturation fluorescence polarization binding of fluorescent glycopeptide 1
T2 construct: domains 1–15 (residues AA 41–2304); gp67 signal peptide (X1) (N, cleaved yes); 6‐His‐tag (C); PreScission protease cutting site (C); TwinStrep‐tag (C); made in house; host or cells: Spodoptera frugiperda Sf9 insect cells (baculovirus, pFastBac-1), secreted into the medium
Excerpt: The gene encoding human CI‐M6P/IGF2R domains 1–15 (residues AA 41–2304) fused to an N‐terminal gp67 signal peptide ([…]) and C‐terminal 6‐His‐tag, PreScission protease cutting site, and TwinStrep‐tag in pFastBac‐1 vector was used for bacmid generation in DH10Bac E. coli (Thermo Fisher Scientific). The recombinant bacmid DNA was purified using alkaline extraction and transfected using ExpiFectamine‐Sf (Thermo Fisher Scientific) into Spodoptera frugiperda 9 (Sf9) cells. […] Expression of the recombinant protein was assessed by SDS‐PAGE and Western Blot analysis. […]
as §1, with “This method monitors the rotational speed of a fluorescent probe—specifically, a fluorescein‐labeled glycopeptide 1.” left out, “^] […]” for “^]”
We first analyzed the interaction between soluble CI‐M6P/IGF2R:D1–D15 and the fluorescent probe (glycopeptide 1) using a reverse saturation binding assay in solution. […]

[2] = receptor 300 nM, glycopeptide 1 10 nM, pH 8.0, mean of two independent measurements in triplicate ± S.D.
[3] = receptor 300 nM, glycopeptide 1 10 nM, pH 8.0, mean of two independent measurements in triplicate ± S.D., read-out: IC50

Potency (relative binding potency) (CI‐M6P/IGF2R:D1–D15) [%] | Molecule | IC50 (CI‐M6P/IGF2R:D1–D15; [3]) [nM] | other results
4.1 | CO[C@H]1O[C@H](CCP(=O)(O)O)[C@@H](O)[C@H](O)[C@@H]1O [Compound 8, Methyl 6-deoxy-6-phosphonomethyl-α-D-mannopyranoside bis(triethylammonium) salt] |  | IC50 (CI‐M6P/IGF2R:D1–D15; values used for comparison with calculations, read-out: experimental IC50 (as listed in Tables S1-S3)): 11500 nM
 | CO[C@H]1O[C@H](Cc2nnn[nH]2)[C@@H](O)[C@H](O)[C@@H]1O [Compound 12] |  | IC50 (CI‐M6P/IGF2R:D1–D15; [2]): did not bind and unmeasurably low and n.b.
0.35 | CO[C@H]1O[C@H](CP(=O)(O)O)[C@@H](O)[C@H](O)[C@@H]1O [Compound 9] | 137000 ± 2000 | 
0.85 | CO[C@H]1O[C@H](CCC(=O)O)[C@@H](O)[C@H](O)[C@@H]1O [Compound 11] | 56000 ± 12000 | fold reduction in binding affinity compared to native M6P 7 (CI‐M6P/IGF2R:D1–D15): fivefold
 | mannose‐6‐phosphate [Compound 7] |  | Kd (CI‐M6P/IGF2R): ~7000 nM
 | NC(=O)[C@H](Cc1cn(CCO[C@H]2O[C@H](CCP(=O)(O)O)[C@@H](O)[C@H](O)[C@@H]2O)nn1)NC(=O)[C@H](Cc1c[nH]c2ccccc12)NC(=O)[C@@H](N)Cc1cn(CCO[C@H]2O[C@H](CCP(=O)(O)O)[C@@H](O)[C@H](O)[C@@H]2O)nn1 [Compound 5] | 480 ± 100 | 
11.3 | O=P(O)(O)CC[C@H]1O[C@H](C/C=C/c2ccc(O)cc2)[C@@H](O)[C@@H](O)[C@@H]1O [Compound 13] | 4200 ± 20 | fold increase in binding affinity compared to compound 8 (CI‐M6P/IGF2R:D1–D15): almost threefold
 | CO[C@H]1O[C@H](CCc2nnn[nH]2)[C@@H](O)[C@H](O)[C@@H]1O [Compound 10] |  | IC50 (CI‐M6P/IGF2R:D1–D15; [2]): did not bind and unmeasurably low and n.b.
 | CC(=O)NCCCC[C@H](NC(=O)[C@H](Cc1cn(CCO[C@H]2O[C@H](CCP(=O)(O)O)[C@@H](O)[C@H](O)[C@@H]2O)nn1)NC(=O)[C@H](Cc1c[nH]c2ccccc12)NC(=O)[C@H](Cc1cn(CCO[C@H]2O[C@H](CCP(=O)(O)O)[C@@H](O)[C@H](O)[C@@H]2O)nn1)NC(C)=O)C(=O)N[C@@H](Cc1cn(CCO[C@H]2O[C@H](CCP(=O)(O)O)[C@@H](O)[C@H](O)[C@@H]2O)nn1)C(N)=O [Compound 4] |  | IC50 (CI‐M6P/IGF2R:D1–D15): 490 ± 70 nM
 | CC(=O)N[C@@H](Cc1cn(CCO[C@H]2O[C@H](CCP(=O)(O)O)[C@@H](O)[C@H](O)[C@@H]2O)nn1)C(=O)N[C@@H](Cc1c[nH]c2ccccc12)C(=O)N[C@@H](Cc1cn(CCO[C@H]2O[C@H](CCP(=O)(O)O)[C@@H](O)[C@H](O)[C@@H]2O)nn1)C(N)=O [Compound 6] | 660 ± 900 | 
 | NCCCC[C@H](NC(=O)[C@H](Cc1cn(CCO[C@H]2O[C@H](CCP(=O)(O)O)[C@@H](O)[C@H](O)[C@@H]2O)nn1)NC(=O)[C@H](CO)NC(=O)[C@H](Cc1cn(CCO[C@H]2O[C@H](CCP(=O)(O)O)[C@@H](O)[C@H](O)[C@@H]2O)nn1)NC(=O)[C@H](CCCCN)NC(=O)[C@H](Cc1cn(CCO[C@H]2O[C@H](CCP(=O)(O)O)[C@@H](O)[C@H](O)[C@@H]2O)nn1)NC(=O)[C@H](CO)NC(=O)[C@H](Cc1cn(CCO[C@H]2O[C@H](CCP(=O)(O)O)[C@@H](O)[C@H](O)[C@@H]2O)nn1)NC(=O)[C@H](CCCCN)NC(=O)[C@H](Cc1cn(CCO[C@H]2O[C@H](CCP(=O)(O)O)[C@@H](O)[C@H](O)[C@@H]2O)nn1)NC(=O)[C@H](CO)NC(=O)CNC(=O)c1ccc2c(c1)C(=O)OC21c2ccc(O)cc2Oc2cc(O)ccc21)C(N)=O [Compound 1] |  | Kd ([1]; glycopeptide 1 10 nM titrated with receptor 0-1500 nM, pH 8.0, read-out: dissociation constant (Kd)): ~400 nM; cooperativity coefficient (n), Hill koef ([1]; specific binding with Hill slope, glycopeptide 1 10 nM): −2.35
 | NCCCC[C@H](NC(=O)[C@H](Cc1cn(CCO[C@H]2O[C@H](CCP(=O)(O)O)[C@@H](O)[C@H](O)[C@@H]2O)nn1)NC(=O)[C@H](Cc1c[nH]c2ccccc12)NC(=O)[C@@H](N)Cc1cn(CCO[C@H]2O[C@H](CCP(=O)(O)O)[C@@H](O)[C@H](O)[C@@H]2O)nn1)C(=O)N[C@@H](Cc1cn(CCO[C@H]2O[C@H](CCP(=O)(O)O)[C@@H](O)[C@H](O)[C@@H]2O)nn1)C(N)=O [Compound 3] |  | IC50 (CI‐M6P/IGF2R:D1–D15): 490 ± 40 nM

Molecule | Potency (relative binding potency) (CI‐M6P/IGF2R:D1–D15) [%] | IC50 (CI‐M6P/IGF2R:D1–D15; [3]) [nM] | other results
CC(=O)N[C@@H](Cc1c[nH]c2ccccc12)C(=O)N[C@@H](Cc1ccccc1)C(=O)NCC(=O)N[C@@H](CO)C(=O)N[C@@H](Cc1cn(CCO[C@H]2O[C@H](CCP(=O)(O)O)[C@@H](O)[C@H](O)[C@@H]2O)nn1)C(=O)N[C@@H](CCCCN)C(=O)N[C@@H](Cc1cn(CCO[C@H]2O[C@H](CCP(=O)(O)O)[C@@H](O)[C@H](O)[C@@H]2O)nn1)C(=O)N[C@@H](CO)C(=O)N[C@@H](Cc1cn(CCO[C@H]2O[C@H](CCP(=O)(O)O)[C@@H](O)[C@H](O)[C@@H]2O)nn1)C(=O)N[C@@H](CCCCN)C(=O)N[C@@H](Cc1cn(CCO[C@H]2O[C@H](CCP(=O)(O)O)[C@@H](O)[C@H](O)[C@@H]2O)nn1)C(=O)N[C@@H](CO)C(=O)N[C@@H](Cc1cn(CCO[C@H]2O[C@H](CCP(=O)(O)O)[C@@H](O)[C@H](O)[C@@H]2O)nn1)C(=O)N[C@@H](CCCCN)C(N)=O [Compound 2] | 100.0 | 480 ± 110 | 
